Reference: patent US7605168B2 (Plexxikon, Inc., priority 2004, dated 2009)

Legend:
[1] = system: TNFα levels in serum of LPS-challenged rats; assay: Rat inhibition studies: serum TNFα after iv LPS challenge; format: in vivo; settings: LPS 0.1 mg/kg iv 2 h after dosing, percent decrease in serum TNFα versus vehicle, read-out: % inhibition r TNFα; for inhibition in vivo at 5 mg/kg: 5 mg/kg po
Description: All studies were done with male rats CD (SD) IGS BR (Crl) (Charles River, France), which were grouped in to 5 animal groups.
At the end of the acclimatization period, the non-fasted rats were weighed, individually identified on the tail with a permanent marker and administered by oral (po) or interperitoneal (ip) route with either vehicle, reference or test compound in a volume of 10 mL/kg adapted to the body weight. The animals were gathered in groups of 5 animals in a polystyrene labeled cage with sawdust covered floors. 2-hours after vehicle, reference or test substance administration, rats received an intravenous (iv) injection of 0.1 mg/kg LPS in a volume of 1 mL/kg of body weight. 2 h after LPS challenge (or as indicated in Tables 3B and 4B), blood samples were collected into tubes without anticoagulant by retro-orbital puncture under gas (isoflurane) anesthesia. Samples were allowed to clot at room temperature for 5 to 10 min then put on ice until there were prepared by centrifugation (6000×g for 3 min at 4° C.) and stored at −20° C. until use. TNFα levels were measured in serum samples in duplicate by ELISA technique according to the manufacturer's procedure (Rat TNFα kit Quantikine M (RTA00, R&D System, France)). Data are reported as percent decrease in observed TNFα levels versus TNFα levels observed for vehicle dosed animal groups.

[2] = target: T1, PDE4B2: full-length human PDE4B2 isozyme (Homo sapiens, UniProt Q07343); assay: PDE4 IC50 determination by Scintillation Proximity Assay (SPA), full-length PDE4B2; format: biochemical; settings: cell lysate, [3H]cAMP SPA
T1 construct: made in house; host or cells: baculovirus infected insect cells (pFastBacHT)
In short: (§1)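 Unpurified enzyme from cell lysates (PDE4B2 2.5 μl, PDE4D5 0.083 μl of 50% glycerol stock/ml) hydrolysing [3H]cAMP in 50 mM Tris pH 7.5, 8.3 mM MgCl, 1.7 mM EGTA, 0.01% BSA, 30 min at 30 °C. Stopped with yttrium silicate SPA beads in 18 mM ZnSO4; bead-bound [3H]AMP counted. IC50 by non-linear regression.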

[3] = target: T2, PDE4D5: full-length human PDE4D5 isozyme (Homo sapiens, UniProt Q08499); assay: PDE4 IC50 determination by Scintillation Proximity Assay (SPA), full-length PDE4D5; format: biochemical; settings: cell lysate, [3H]cAMP SPA
T2 construct: made in house; host or cells: baculovirus infected insect cells (pFastBacHT)
In short: as §1

[4] = target: T3, PDE4B: catalytic domain of human PDE4B from S152-S528 (Homo sapiens, UniProt Q07343); assay: PDE4 IC50 determination by Scintillation Proximity Assay (SPA), PDE4B catalytic domain; format: biochemical; settings: [3H]cAMP SPA, 30 min at 30° C.
T3 construct: The catalytic domain of human PDE4B from S152-S528; His6 (N, cleaved yes); thrombin cleavage site (N, cleaved yes); made in house; host or cells: E. coli BL21 (DE3) RIL
In short: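 Human PDE4B catalytic domain (80 ng/ml) hydrolysed [3H]cAMP in 50 mM Tris pH 7.5, 8.3 mM MgCl, 1.7 mM EGTA, 0.01% BSA for 30 min at 30 °C. Reaction was stopped with yttrium silicate SPA beads in 18 mM ZnSO4, and bound [3H]AMP was counted by scintillation. IC50 came from non-linear regression.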

[5] = system: TNF-α release from whole blood cultures stimulated with LPS; assay: IC50 by TNF alpha production upon stimulation of whole blood cultures with LPS; format: cell-based; settings: human whole blood (buffy coat) culture, 100 ng/ml LPS, 4 hours; read-out: h TNFα IC50
In short: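 Human buffy coat, diluted with 7 volumes of RPMI/2.5% heat-inactivated FBS, was preincubated with compound (8-point 1:3 series) for 1 h at 37 °C. It was then stimulated with 100 ng/ml LPS (final) for 4 h. Supernatant TNF-α was measured by sandwich ELISA at 450 nm, and IC50 was set between DMSO (0%) and PDE4-inhibitor (100%) controls.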

T1 sequence (Q07343 with tags, fused parts or gaps isoform Q07343-2): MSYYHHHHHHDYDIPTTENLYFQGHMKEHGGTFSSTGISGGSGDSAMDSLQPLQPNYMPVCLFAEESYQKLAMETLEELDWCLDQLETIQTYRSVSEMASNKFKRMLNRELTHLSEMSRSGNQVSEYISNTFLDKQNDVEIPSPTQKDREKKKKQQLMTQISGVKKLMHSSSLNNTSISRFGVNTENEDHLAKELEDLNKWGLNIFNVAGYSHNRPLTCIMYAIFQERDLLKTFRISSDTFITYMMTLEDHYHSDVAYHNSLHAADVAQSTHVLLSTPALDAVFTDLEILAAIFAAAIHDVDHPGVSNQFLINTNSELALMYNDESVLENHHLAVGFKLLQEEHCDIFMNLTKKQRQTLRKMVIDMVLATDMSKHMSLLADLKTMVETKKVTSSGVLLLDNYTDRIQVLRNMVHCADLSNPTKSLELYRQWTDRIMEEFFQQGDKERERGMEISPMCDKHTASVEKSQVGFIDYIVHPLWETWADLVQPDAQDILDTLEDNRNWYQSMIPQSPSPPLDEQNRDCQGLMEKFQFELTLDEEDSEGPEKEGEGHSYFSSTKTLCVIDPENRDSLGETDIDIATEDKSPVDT
T3 sequence (Q07343 324-700): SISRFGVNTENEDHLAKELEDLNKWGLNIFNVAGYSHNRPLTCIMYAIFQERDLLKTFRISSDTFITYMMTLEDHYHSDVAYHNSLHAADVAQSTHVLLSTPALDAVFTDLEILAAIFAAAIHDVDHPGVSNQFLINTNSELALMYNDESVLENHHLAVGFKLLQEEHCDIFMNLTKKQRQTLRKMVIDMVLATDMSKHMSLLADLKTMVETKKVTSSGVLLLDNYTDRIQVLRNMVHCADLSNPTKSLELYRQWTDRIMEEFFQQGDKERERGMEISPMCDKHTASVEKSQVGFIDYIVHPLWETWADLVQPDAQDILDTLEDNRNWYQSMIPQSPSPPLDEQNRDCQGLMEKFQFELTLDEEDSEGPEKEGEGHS
T2 sequence (Q08499 with tags, fused parts or gaps isoform Q08499-6): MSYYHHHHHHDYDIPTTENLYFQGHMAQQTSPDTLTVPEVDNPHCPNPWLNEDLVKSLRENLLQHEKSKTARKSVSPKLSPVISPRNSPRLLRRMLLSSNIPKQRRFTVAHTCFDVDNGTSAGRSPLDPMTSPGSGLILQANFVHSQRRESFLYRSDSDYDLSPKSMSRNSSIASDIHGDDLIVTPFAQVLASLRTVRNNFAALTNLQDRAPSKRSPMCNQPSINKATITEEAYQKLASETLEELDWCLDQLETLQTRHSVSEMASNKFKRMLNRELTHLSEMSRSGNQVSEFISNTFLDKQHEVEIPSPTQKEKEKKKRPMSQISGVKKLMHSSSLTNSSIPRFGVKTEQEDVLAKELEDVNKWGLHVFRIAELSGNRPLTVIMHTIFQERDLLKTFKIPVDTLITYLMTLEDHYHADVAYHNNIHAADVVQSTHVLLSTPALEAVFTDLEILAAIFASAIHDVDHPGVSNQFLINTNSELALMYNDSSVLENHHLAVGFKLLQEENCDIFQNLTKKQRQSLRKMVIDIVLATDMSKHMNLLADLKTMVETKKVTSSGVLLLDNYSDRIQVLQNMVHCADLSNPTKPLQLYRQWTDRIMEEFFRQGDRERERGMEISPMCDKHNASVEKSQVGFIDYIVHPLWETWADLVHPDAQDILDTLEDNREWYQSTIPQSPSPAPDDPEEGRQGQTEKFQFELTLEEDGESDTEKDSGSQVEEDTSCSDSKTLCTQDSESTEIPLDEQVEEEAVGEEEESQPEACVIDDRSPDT

Structure (SMILES): COc1ccc(-c2cn(S(=O)(=O)c3cccc4cccnc34)c3ncccc23)cc1OC [Compound 7, 8-[3-(3,4-dimethoxy-phenyl)-pyrrolo[2,3-b]pyridine-1-sulfonyl]-quinoline]
- inhibition in vivo at 50 mg/kg ([1]; 50 mg/kg po or ip): ≥ 20%
- IC50 [2]: < 10 µM
- IC50 [3]: < 10 µM
- IC50 [4]: < 10 µM
- IC50 [5]: ≤ 10 µM

Structure (SMILES): CCOc1ccc2ccccc2c1C(=O)n1ccc2c(-c3ccc(OC)c(OC)c3)ccnc21 [Compound 48, [4-(3,4-Dimethoxy-phenyl)-pyrrolo[2,3-b]pyridin-1-yl]-(2-ethoxy-naphthalen-1-yl)-methanone]
- inhibition in vivo at 5 mg/kg [1]: ≥ 20%
- IC50 [2]: < 10 µM
- IC50 [3]: < 10 µM
- IC50 [4]: < 10 µM
- IC50 [5]: ≤ 10 µM

Structure (SMILES): CCOc1ccccc1C(=O)n1ccc2cc(-c3ccc(OC)c(OC)c3)cnc21 [Compound 83, [5-(3,4-Dimethoxy-phenyl)-pyrrolo[2,3-b]pyridin-1-yl]-(2-ethoxy-phenyl)-methanone]
- inhibition in vivo at 5 mg/kg [1]: ≥ 20%
- IC50 [2]: < 10 µM
- IC50 [3]: < 10 µM
- IC50 [4]: < 10 µM
- IC50 [5]: ≤ 10 µM

Structure (SMILES): COc1ccc(-c2cn(C(=O)c3ccccc3OC(C)=O)c3ncccc23)cc1OC [Compound 110, Acetic acid 2-[3-(3,4-dimethoxy-phenyl)-pyrrolo[2,3-b]pyridine-1-carbonyl]-phenyl ester]
- inhibition in vivo at 5 mg/kg [1]: ≥ 20%
- IC50 [2]: < 10 µM
- IC50 [3]: < 10 µM
- IC50 [4]: < 10 µM
- IC50 [5]: ≤ 10 µM

Structure (SMILES): COc1ccc(-c2cn(C(=O)c3c(OCC(F)(F)F)ccc4ccccc34)c3ncccc23)cc1OC [Compound 112, [3-(3,4-Dimethoxy-phenyl)-pyrrolo[2,3-b]pyridin-1-yl]-[2-(2,2,2-trifluoro-ethoxy)-naphthalen-1-yl]-methanone]
- inhibition in vivo at 3 mg/kg ([1]; 3 mg/kg po): ≥ 20%
- IC50 [2]: < 10 µM
- IC50 [3]: < 10 µM

Structure (SMILES): COc1ccc(-c2ccnc3c2ccn3S(=O)(=O)c2cccc3cccnc23)cc1OC [Compound 126, 8-[4-(3,4-Dimethoxy-phenyl)-pyrrolo[2,3-b]pyridine-1-sulfonyl]-quinoline]
- inhibition in vivo at 5 mg/kg [1]: ≥ 20%
- IC50 [2]: < 10 µM
- IC50 [3]: < 10 µM
- IC50 [4]: < 10 µM
- IC50 [5]: ≤ 10 µM
